Values joined by “and” are separate entries in the source; they are usually repeats but may differ in a detail not shown here. Equal entries are not always repeated.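 Following 48 hours of exposure in 96-well plates, responses at five concentrations were used to interpolate endpoints linearly. At the GI50, growth is halved. TGI is the concentration that stops growth completely.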
How the values were obtained:
Experiment in all cases: NCI anticancer screen, dose series, 48 h
RXF-631 renal = test system: RXF-631 renal
HOP-18 NSCLC = test system: HOP-18 NSCLC
DMS 273 small cell lung = test system: DMS 273 small cell lung
NCI/ADR-RES ovarian = test system: NCI/ADR-RES ovarian
BT-549 breast = test system: BT-549 breast
MDA-MB-231 breast = test system: MDA-MB-231 breast
MDA-N = test system: MDA-N
MDA-MB-435 = test system: MDA-MB-435
HS 578T breast = test system: HS 578T breast

O=C(Nc1c(O)[nH]c(=S)[nH]c1=O)c1ccccn1
TGI (RXF-631 renal): > 100 µM | TGI (HOP-18 NSCLC): > 100 µM

CN(C)CC(/C(Cc1ccccc1)=N\NC(=O)C[n+]1ccccc1)c1ccccc1 (stereo unspecified)
TGI (RXF-631 renal): > 100 µM | TGI (DMS 273 small cell lung): > 100 µM | TGI (HOP-18 NSCLC): > 100 µM

OCCOc1ccc(-c2cc(-c3ccccn3)nc(-c3ccccn3)c2)cc1
TGI (NCI/ADR-RES ovarian): 2.4 µM | TGI (RXF-631 renal): > 100 µM | TGI (BT-549 breast): > 100 µM | TGI (MDA-MB-231 breast): > 40.2 µM | TGI (HOP-18 NSCLC): 5.59 µM | TGI (MDA-N): > 100 µM | TGI (MDA-MB-435): > 100 µM | TGI (HS 578T breast): > 100 µM

O=C(O)c1ccccc1Cc1ccco1
TGI (DMS 273 small cell lung): > 100 µM | TGI (HOP-18 NSCLC): > 100 µM

CC1=CC2CC(C)=C(CC[C@]3(C)CC[C@H]([C@@H](C)C(=O)O)OO3)C(C)(C)C2CC1 (stereo partly specified)
TGI (RXF-631 renal): 2.95 µM | TGI (DMS 273 small cell lung): 1.09 µM | TGI (HOP-18 NSCLC): 1.45 µM

O=C(CC1=Nc2nnc(-c3nnc4n3C(=O)C(CC(=O)c3cccnc3)=N4)n2C1=O)c1cccnc1
TGI (RXF-631 renal): > 100 µM | TGI (DMS 273 small cell lung): > 100 µM

N#C/C(=C\c1ccccc1O)C(N)=O
TGI (RXF-631 renal): > 100 µM | TGI (DMS 273 small cell lung): > 100 µM

O=C1c2ccccc2C2(O)Nc3cc(O)ccc3C12O (stereo unspecified)
TGI (RXF-631 renal): > 100 µM | TGI (DMS 273 small cell lung): > 100 µM | TGI (HOP-18 NSCLC): > 100 µM

N=C(c1ccccc1)N(c1ccccc1)c1ccccc1
TGI (DMS 273 small cell lung): > 100 µM | TGI (HOP-18 NSCLC): 13.1 µM

CC1=NN(C(=O)c2ccccc2O)C(=O)/C1=C/c1ccc([N+](=O)[O-])cc1
GI50 (NCI/ADR-RES ovarian): 0.449 µM | GI50 (BT-549 breast): 0.127 µM | TGI (BT-549 breast): > 100 µM | TGI (MDA-MB-231 breast): > 100 µM | GI50 (MDA-N): 0.0903 µM | TGI (MDA-N): > 100 µM | TGI (MDA-MB-435): > 100 µM | TGI (HS 578T breast): > 100 µM

N#Cc1cccc(N2C(=O)c3c(c(-c4ccccc4)c(-c4ccc(Sc5ccc(-c6c(-c7ccccc7)c7c(c(-c8ccccc8)c6-c6ccccc6)C(=O)N(c6cccc(C#N)c6)C7=O)cc5)cc4)c(-c4ccccc4)c3-c3ccccc3)C2=O)c1
TGI (RXF-631 renal): > 100 µM | TGI (DMS 273 small cell lung): > 100 µM

Cc1ccc(C(=O)O/N=C2/CCCC/C2=C\c2ccccc2)cc1
TGI (DMS 273 small cell lung): 76.9 µM | TGI (HOP-18 NSCLC): > 100 µM

C1=C(c2ccccc2)CN(c2ccccc2)OC1
TGI (DMS 273 small cell lung): > 100 µM | TGI (HOP-18 NSCLC): 69.3 µM

Nc1ncnc2c1ncn2C1OC(COP(=O)(O)CP(=O)(O)O)C(O)C1O (stereo unspecified)
TGI (NCI/ADR-RES ovarian): > 100 µM | TGI (BT-549 breast): > 100 µM | TGI (MDA-N): > 100 µM | TGI (MDA-MB-435): > 100 µM | TGI (HS 578T breast): > 100 µM

Cc1cccc(C(=O)c2cccc3ccccc23)c1C(=O)O
TGI (RXF-631 renal): > 100 µM | TGI (DMS 273 small cell lung): > 100 µM | TGI (HOP-18 NSCLC): > 100 µM

CCOc1ccccc1NC(=O)CCC(=O)OC
TGI (DMS 273 small cell lung): > 100 µM | TGI (HOP-18 NSCLC): > 100 µM

Cc1ccc(C)c(NC(=O)C(=O)CC(=O)C2CCOC2=O)c1 (stereo unspecified)
TGI (DMS 273 small cell lung): > 100 µM

COc1ccc(S(=O)(=O)NC(C)C(=O)O)cc1 (stereo unspecified)
TGI (DMS 273 small cell lung): > 100 µM | TGI (HOP-18 NSCLC): > 100 µM

COc1cccc2c1C(=O)c1c(O)c3c(c(O)c1C2=O)CC(O)(C(C)=O)CC3OC1CC(N)C(O)C(C)O1 (stereo unspecified)
GI50 (NCI/ADR-RES ovarian): 3.52 µg/mL | TGI (NCI/ADR-RES ovarian): 25 µg/mL | GI50 (BT-549 breast): 0.0458 µg/mL | TGI (BT-549 breast): 0.459 µg/mL | GI50 (MDA-MB-231 breast): 0.0409 µg/mL | TGI (MDA-MB-231 breast): 0.59 µg/mL | GI50 (MDA-N): 0.156 µg/mL | TGI (MDA-N): 0.391 µg/mL | GI50 (MDA-MB-435): 0.0894 µg/mL | TGI (MDA-MB-435): 0.33 µg/mL | GI50 (HS 578T breast): 0.0481 µg/mL | TGI (HS 578T breast): 0.421 µg/mL

O=C1OC(=O)c2c1c(-c1ccccc1)cn2-c1ccc(Cl)cc1
TGI (RXF-631 renal): > 100 µM | TGI (DMS 273 small cell lung): > 100 µM | TGI (HOP-18 NSCLC): > 100 µM

C#CCC[C@@H]1O[C@@]1(C)CC/C=C(\C)CC/C=C/C=O
TGI (DMS 273 small cell lung): 39 µM

CC(C)=CCN=C(N)N
TGI (NCI/ADR-RES ovarian): > 100 µM | TGI (BT-549 breast): > 100 µM | TGI (MDA-MB-231 breast): > 100 µM | TGI (MDA-N): > 100 µM | TGI (MDA-MB-435): > 100 µM | TGI (HS 578T breast): > 100 µM

COc1c2c(c3c(c1C1OC(C)[C@@H](C)O1)CC(C)(C)O3)C(=O)c1ccccc1C2=O (stereo partly specified)
TGI (RXF-631 renal): 33.4 µM | TGI (DMS 273 small cell lung): 69.7 µM

CC1=CCC[C@@]2(C)C(CC[C@@H]2C(C)/C=C/C(C)C)c2ccc(cc2C(=O)O)C[C@@H](O)CC1 (stereo partly specified)
TGI (DMS 273 small cell lung): 34.2 µM

Cc1c2cc[nH]c(=O)c2c(C)c2c1[nH]c1cc(OCCN3CCN(C)CC3)ccc12
GI50 (NCI/ADR-RES ovarian): 3.37 µM | TGI (NCI/ADR-RES ovarian): 16.3 µM | GI50 (BT-549 breast): 2.71 µM | TGI (BT-549 breast): 11.4 µM | GI50 (MDA-MB-231 breast): 0.783 µM | TGI (MDA-MB-231 breast): 3.19 µM | GI50 (MDA-MB-435): 1.06 µM | TGI (MDA-MB-435): 2.43 µM | GI50 (HS 578T breast): 2.01 µM | TGI (HS 578T breast): 9.23 µM

COc1cccc([C@H]2CC(=O)c3cc4c(cc3N2)OCO4)c1
GI50 (NCI/ADR-RES ovarian): 0.036 µM | GI50 (MDA-MB-231 breast): 0.716 µM | TGI (MDA-MB-231 breast): > 100 µM | GI50 (MDA-N): 0.0287 µM | GI50 (MDA-MB-435): 0.0177 µM | TGI (MDA-MB-435): 0.044 µM | TGI (HS 578T breast): 83.3 µM

[O-]/[N+](=C\c1ccccc1)[C@H](COCc1ccccc1)c1ccccc1
TGI (RXF-631 renal): > 100 µM | TGI (DMS 273 small cell lung): > 100 µM | TGI (HOP-18 NSCLC): 90.4 µM

O=C(O)CSCc1cccc2ccccc12
TGI (NCI/ADR-RES ovarian): > 100 µM | TGI (BT-549 breast): > 100 µM | TGI (MDA-MB-231 breast): > 100 µM | TGI (MDA-N): > 100 µM | TGI (MDA-MB-435): > 100 µM | TGI (HS 578T breast): > 100 µM

CNC(=O)c1cc(COc2nnc(Nc3ccc(Cl)cc3)c3ccoc23)ccn1
GI50 (NCI/ADR-RES ovarian): 4.48 µM and > 10 µM | TGI (NCI/ADR-RES ovarian): > 42.5 µM | GI50 (BT-549 breast): 3.53 µM and > 10 µM | TGI (BT-549 breast): 16.6 µM and > 10 µM | GI50 (MDA-MB-231 breast): 3.43 µM and > 10 µM | TGI (MDA-MB-231 breast): 13.8 µM and > 10 µM | GI50 (MDA-MB-435): 10.4 µM and > 10 µM | TGI (MDA-MB-435): 43.9 µM and > 10 µM | GI50 (HS 578T breast): 2.41 µM and 4.62 µM | TGI (HS 578T breast): 10.9 µM and > 10 µM

CC[P+](C)(Cc1ccccc1)c1ccccc1 (stereo unspecified)
TGI (DMS 273 small cell lung): > 100 µM | TGI (HOP-18 NSCLC): > 100 µM

COc1cc2c(cc1OC)C13CCN4C=C5CCOC6CC(=O)N2C1C6C5CC43 (stereo unspecified)
TGI (NCI/ADR-RES ovarian): > 100 µM | TGI (BT-549 breast): > 100 µM | TGI (MDA-MB-231 breast): > 100 µM | TGI (MDA-N): > 100 µM | TGI (MDA-MB-435): > 100 µM | TGI (HS 578T breast): > 100 µM

Cc1cc(C)nc(NC(N)=NCCc2ccccc2)n1
GI50 (NCI/ADR-RES ovarian): 31 µM | TGI (NCI/ADR-RES ovarian): > 100 µM | GI50 (BT-549 breast): 3.92 µM | TGI (BT-549 breast): > 100 µM | GI50 (MDA-MB-231 breast): 6.55 µM | TGI (MDA-MB-231 breast): 52.8 µM | GI50 (MDA-MB-435): 1.52 µM | TGI (MDA-MB-435): 4.49 µM | GI50 (HS 578T breast): 4.41 µM | TGI (HS 578T breast): 54.9 µM

O=C(c1ccccc1)c1c(NCC(O)CN2CCCC2)n(Cc2ccccc2)c(=O)n(Cc2ccccc2)c1=O (stereo unspecified)
GI50 (NCI/ADR-RES ovarian): 19.5 µM | TGI (NCI/ADR-RES ovarian): 55.3 µM | GI50 (BT-549 breast): 13.1 µM | TGI (BT-549 breast): 27 µM | GI50 (MDA-MB-231 breast): 15.3 µM | TGI (MDA-MB-231 breast): 29.6 µM | GI50 (MDA-MB-435): 17.4 µM | TGI (MDA-MB-435): 32.8 µM | GI50 (HS 578T breast): 16.2 µM | TGI (HS 578T breast): 37.8 µM

Nc1nc(CCC(=O)Nc2cccc(C(F)(F)F)c2)cc(-c2cccc3ccccc23)n1
TGI (RXF-631 renal): > 100 µM | TGI (DMS 273 small cell lung): > 100 µM | TGI (HOP-18 NSCLC): > 100 µM

— PubChem BioAssay (NCI)
